Results: ChEMBL document CHEMBL1143910, “Synthesis of guanidino analogues of PMPDAP and their immunobiological activity” (Bioorg Med Chem, 2008)
Calls of active or inactive are those of the source. The rule behind the calls is not given here.

What was measured:
[1] = system: L1210; test: Cytotoxicity against mouse L1210 cells; assay type: cell-based
[2] = system: Human immunodeficiency virus 1; test: Antiviral activity against HIV1; assay type: functional, organism-based
[3] = system: Maize streak virus; test: Antiviral activity against MSV; assay type: functional
[4] = system: L929; test: Cytotoxicity against mouse L929 cells; assay type: cell-based
[5] = system: Human immunodeficiency virus 2; test: Antiviral activity against HIV2; assay type: functional, organism-based
[6] = system: Macrophage; test: Increase in IFN-gamma stimulated nitric oxide production in C57BL/6 mouse peritoneal macrophages at 100 uM after 24 hrs; assay type: functional, cell-based
[7] = Cytotoxicity against human HeLaS3 cells; assay type: cell-based; conditions: hela s3
[8] = system: Macrophage; test: Increase in IFN-gamma stimulated nitric oxide production in C57BL/6 mouse peritoneal macrophages at 10 to 25 uM after 24 hrs; assay type: functional, cell-based
[9] = Activation of TNFalpha secretion in C57BL/6 mouse peritoneal macrophages at 100 uM after 16 hrs by ELISA; assay type: functional, cell-based; conditions: Macrophage
[10] = system: PBMC; test: Activation of RANTES secretion in human PBMC at 50 uM after 16 hrs by ELISA; assay type: functional, cell-based
[11] = system: PBMC; test: Activation of MIP1-alpha secretion in human PBMC at 50 uM after 16 hrs by ELISA; assay type: functional, cell-based
[12] = system: Macrophage; test: Activation of MIP1-alpha secretion in C57BL/6 mouse peritoneal macrophages at 100 uM after 16 hrs by ELISA; assay type: functional, cell-based
[13] = system: Macrophage; test: Activation of RANTES secretion in C57BL/6 mouse peritoneal macrophages at 100 uM after 16 hrs by ELISA; assay type: functional, cell-based

Structure (SMILES) | Activity [1] | Activity [2] | Activity [3] | Activity [4] | Activity [5] | Activity [6] | Activity [7] | Activity [8] | Activity [9] | Activity [10] | Activity [11] | Activity [12] | Activity [13]
C[C@@H](Cn1cnc2cnc(N=C(N)N)nc21)OCP(=O)(O)O | Not Active | inactive | inactive | Not Active | inactive | inactive | Not Active |  |  |  |  |  | 
C[C@H](Cn1cnc2cnc(N=C(N)N)nc21)OCP(=O)(O)O | Not Active | inactive | inactive | Not Active | inactive | inactive | Not Active |  |  |  |  |  | 
C[C@@H](Cn1cnc2c(N=C(N)N)ncnc21)OCP(=O)(O)O | Not Active | inactive | inactive | Not Active | inactive | inactive | Not Active |  |  |  |  |  | 
C[C@@H](Cn1cnc2c(N)nc(N=C(N)N)nc21)OCP(=O)(O)O | Not Active | inactive | inactive | Not Active | inactive | inactive | Not Active |  |  |  |  |  | 
C[C@@H](Cn1cnc2ncnc(N=C(N)N)c21)OCP(=O)(O)O | Not Active | inactive | inactive | Not Active | inactive | inactive | Not Active |  |  |  |  |  | 
C[C@H](Cn1cnc2ncnc(N=C(N)N)c21)OCP(=O)(O)O | Not Active | inactive | inactive | Not Active | inactive | inactive | Not Active |  |  |  |  |  | 
C[C@H](Cn1cnc2nc(N)nc(N=C(N)N)c21)OCP(=O)(O)O | Not Active | inactive | inactive | Not Active | inactive | Active | Not Active |  |  |  |  |  | 
C[C@H](Cn1cnc2nc(N=C(N)N)ncc21)OCP(=O)(O)O | Not Active | inactive | inactive | Not Active | inactive | inactive | Not Active |  |  |  |  |  | 
C[C@H](Cn1c(N=C(N)N)nc(N)c2ncnc1-2)OCP(=O)(O)O | Not Active | inactive | inactive | Not Active | inactive | Active | Not Active |  |  |  |  |  | 
C[C@@H](Cn1cnc2c(N=C(N)N)nc(N)nc21)OCP(=O)(O)O | Not Active | inactive | inactive | Not Active | inactive | Active | Not Active |  |  |  |  |  | 
C[C@H](Cn1cnc2c(N=C(N)N)nc(N)nc21)OCP(=O)(O)O | Not Active | inactive | inactive | Not Active | inactive | Active | Not Active | Active | Active | Active | Active | Active | Active
C[C@@H](Cn1c(N=C(N)N)nc(N)c2ncnc1-2)OCP(=O)(O)O | Not Active | inactive | inactive | Not Active | inactive | Active | Not Active | Active | Active | Active | Active | Active | Active
C[C@@H](Cn1cnc2nc(N)nc(N=C(N)N)c21)OCP(=O)(O)O | Not Active | inactive | inactive | Not Active | inactive | Active | Not Active |  |  |  |  |  | 
C[C@H](Cn1cnc2c(N)nc(N=C(N)N)nc21)OCP(=O)(O)O | Not Active | inactive | inactive | Not Active | inactive | inactive | Not Active |  |  |  |  |  | 
C[C@@H](Cn1cnc2nc(N=C(N)N)ncc21)OCP(=O)(O)O | Not Active | inactive | inactive | Not Active | inactive | inactive | Not Active |  |  |  |  |  | 
C[C@H](Cn1cnc2c(N=C(N)N)ncnc21)OCP(=O)(O)O | Not Active | inactive | inactive | Not Active | inactive | inactive | Not Active |  |  |  |  |  | 
